Test results from a melting point compilation (Tetko et al.; mined from patent text by program, amines drawn as free bases though some values may be those of a salt).

SMILES | melting point
O=c1[nH]ccn1-c1ccc(OCC(F)(F)C(F)F)cc1 | 157 to 159 °C
COc1cc2c(cc1Nc1ncc(Cl)c(Nc3ccccc3S(=O)(=O)N(C)C)n1)CCN(CC(=O)N1CCC1)CC2 | 75 to 87 °C
ON=CCCc1ccccc1 | 85 to 93 °C
CCOC(=O)NC(=NCCCCc1ccccn1)NCCCc1c[nH]cn1 | 92 to 94 °C
Cn1nc(-c2c(NCc3ccccn3)nc(N)nc2-c2ccccc2)ccc1=O | 248 to 250 °C
COc1cc(OC)c(C)c(C(=O)OCC(Cl)(Cl)Cl)c1C | 129 °C
CCc1cccc2c(/C=C/C(=O)N3CCCCC3)cc(OC)c(O)c12 | 85 to 86 °C
CCOCCn1c(N2CCCN(CCC3(c4cccc(Cl)c4)CCN(C(=O)c4cc(OC)c(OC)c(OC)c4)C3)CC2)nc2ccccc21 (stereo not given) | 66 to 78 °C
Cc1cc(C)c(S(=O)(=O)NC(CNc2ccccc2)C(F)(F)F)c(C)c1 (stereo not given) | 82 to 86 °C
O=c1[nH]c2cc([N+](=O)[O-])c(S(=O)(=O)NCCO)cc2[nH]c1=O | 281 to 289 °C
CCCCCCCCCCCCCCCCCCNC(=O)OCC(CNS(=O)(=O)CCCI)NC(=O)OCCCC (stereo not given) | 96 to 98 °C
COc1cc2c(cc1Br)CCC2=O | 149 to 151 °C
Clc1ccc(NN=Cc2cccnc2)cc1 | 186 °C
Cn1cnc(COc2nc3c(nnn3-c3ccccc3)c3ccccc23)n1 | 189 to 190 °C
Cn1c(-c2ccccc2[N+](=O)[O-])nc2ccccc21 | 132 to 134 °C
CCCCCCC/C=C/C(=O)NC1CCCCC1 | 94 to 96 °C
CC1(C(=O)NCCc2ccc(CCC(=O)O)cc2)C=CN=N1 (stereo not given) | 202 to 205 °C
Cc1nc(-c2cccnc2)sc1-c1ccnc(Nc2ccc3c(c2)OCO3)n1 | 187 to 188 °C
COc1ccc(-c2nc(C(=O)N(C)C)c3c4ccc(Cl)cc4n(C)c3n2)cn1 | 267 to 268 °C
COc1cc(CCC(=O)CC(=O)c2ccccc2)ccc1O | 76 to 78 °C
Cc1ccc(-c2nnc(N3CCOCC3)nc2-c2ccc(C)cc2)cc1 | 190 to 192 °C
CN(C)C(=O)C1Cc2c(c(Cl)cc(F)c2N2C(=O)C3=C(CCCC3)C2=O)O1 (stereo not given) | 190 to 193 °C
O=C(Nc1cccc(F)c1)c1ccc(CN2C(=O)C3(COc4cc5c(cc43)CCO5)c3ccccc32)cc1 (stereo not given) | > 250 °C
Cc1ccc(S(=O)(=O)OC2CC(=O)N(Cc3ccccc3)C2)cc1 (stereo not given) | 83 to 84 °C
CCCCS(=O)(=O)Nc1cccc(COc2cccc3cccnc23)c1 | 136 to 137 °C

SMILES | melting point
COc1cccc(C(=O)N(C)C)c1-c1ccccc1 | 83 to 84 °C
CC(=O)NCc1ccc2ccn(C3CCN(CCc4ccc(F)cc4)CC3)c2c1 | 127 to 128 °C
CN(Nc1ccccc1COc1ccn(-c2ccc(Cl)cc2)n1)C(N)=O | 152 to 154 °C
Cc1c(O)ccc2c(=O)cc(N3CCOCC3)oc12 | > 250 °C
Cc1nnc(F)c(-c2c(F)cc(F)cc2F)c1-c1cccs1 | 71 to 74 °C
CCN(CC)C(=O)Nc1ccc(S(=O)(=O)N2C(=O)C(NCCN3CCNCC3)(c3ccccc3Cl)c3cc(Cl)ccc32)cc1 (stereo not given) | 260 °C
CCN(C1CC(C)(C)Oc2ccc(OCc3ccccc3)cc21)S(C)(=O)=O (stereo not given) | 104 to 106 °C
N#Cc1ccc(F)c(C2=Nc3ccc(-c4ccccc4F)cc3NC(=O)C2)c1 | 239 °C
COC(=O)c1ccc(C=CC(=O)N2CCc3c([nH]c4ccccc34)C2c2ccc3c(c2)OCCO3)cc1 (stereo not given) | 136 °C
COc1cc(CCNC(=O)[C@@H](NC(=O)OC(C)(C)C)C(C)C)ccc1OC/C=C\c1ccc(Cl)cc1 | 82 to 84 °C
Fc1ccc(-c2cc(NCc3cccc(NCc4ccccc4)n3)n[nH]2)cc1 | 117 to 118 °C
O=C1C2=C(CCCC2)C(=O)N1c1cc(OC2CCCC2)c(Cl)cc1F | 69 to 75.2 °C
O=c1[nH]c2sccc2c2c([N+](=O)[O-])cccc12 | 255 to 258 °C
Fc1ccc(NC(=S)NN(c2ccccc2)c2ccccc2)cc1 | 200 °C
N#CCOc1ccc2cc(-c3ccc(-c4ccccc4)[nH]3)ccc2c1 | 142 °C
Oc1c(Cl)cc(Cl)cc1Cc1cc(F)cc(Cc2cc(Cl)cc(Cl)c2O)c1O | 168 °C
CCOC(=O)c1nccn1-c1nc(-c2ccc(Cl)cc2)c(CCCOc2ccccc2OC)o1 | 90 to 91 °C
COc1ccc(C[C@H](NC(=O)OCc2ccccc2)C(=O)N2CCN(CC(=O)OC(C)(C)C)C(=O)[C@@H]2CCCNC(=O)OCc2ccccc2)cc1 | 138 to 140 °C
CC(C)(C)C(=O)Oc1cc(C(=O)OCC[Si](C)(C)C)cc2oc(-c3ccccc3)cc(=O)c12 | 205 °C
FC(F)(F)Oc1ccc(-c2ccc3[nH]c4c(ccc5cc[nH]c54)c3c2)cc1 | > 250 °C
CCc1ccc(NC(=O)NCc2ccc3c(c2)CN(C2CCC(=O)NC2=O)C3=O)cc1 (stereo not given) | 263 to 265 °C
CCCCOc1ccc2sc(-c3ccccn3)nc(=O)c2c1 | 161 to 162 °C
O=c1oc2ccccc2c2c1CNCC2 | 125 to 128 °C
CSc1nn2c(Cl)cc(Cl)nc2c1S(=O)(=O)c1ccccc1 | 193 to 197 °C
Cc1ccc(OC2CCN(C(=O)C(=O)Nc3ccc4[nH]c(=O)[nH]c4c3)CC2)cc1 | 294 °C

SMILES | melting point
CC1(C)c2c(ccc3cc(C#N)c(Cn4cncn4)cc23)OC1O (stereo not given) | 219 to 222 °C
Cc1ccc(C)n1-c1ccc(C(C)NO)cc1 (stereo not given) | 109 to 111 °C
Cc1cccc(C)c1N(C(=O)CN)C(=O)CCl | 135 to 137 °C
COC(Nc1ccccc1)(OC)c1ccnc(C(=O)c2ccccc2)c1 | 123 to 124 °C
O=C1N(Cc2ccccc2C(F)(F)F)c2ccccc2C12COc1cc3[nH]ncc3cc12 (stereo not given) | 124 to 126 °C
O=NCNC1=Nc2ccc(Cl)cc2N(c2ccccc2)C(=O)C1 | 121 to 124 °C
CCCCCCCCCCCCCCCc1cccc(OC)c1C1NC(=O)NC(C)=C1C(=O)OC (stereo not given) | 101 to 102 °C
O=C(O)COc1cccc2c1CCc1sc(S(=O)(=O)CC(c3ccccc3)c3ccccc3)nc1-2 | 168 to 170 °C
CCc1c(-c2ccc(OC)cc2)c2c(C(=O)N(C)CCN(C)C)c(C(=O)O)c3cc(OC)cc1n32 | 221 to 223 °C
CS(=O)(=O)c1ccc(C(CC2CCCC2)C(N)=O)cc1Br (stereo not given) | 60 to 63 °C
O=C1NC(=O)C(Sc2ccc(F)cc2)S1 (stereo not given) | 99 to 100 °C
CCOC(=O)c1ncn(-c2nccs2)c1Cl | 128 to 131 °C
CCOC(=O)c1cc(-c2ccccc2)n(-c2ccc(S(N)(=O)=O)cc2)n1 | 192 to 195 °C
Cc1ccc2cccc(OCc3c(Cl)ccc(S(=O)(=O)n4cccc4)c3Cl)c2n1 | 216 to 217 °C
COC(=O)c1cc(Br)c(O)c(C(C)=O)c1 | 106 to 108 °C
CCCCc1nc2cccc(C(=O)O)c2n1Cc1ccc(-n2cccc2-c2nnn[nH]2)cc1 | 165 to 167 °C
CCCCCCCCCCCCCCCC(=O)Nc1cc(NC(=O)CCCCCCCCCCCCCCC)cc(C(=O)N(CC(=O)O)CC(=O)O)c1 | 129 to 133 °C
Cc1csc(C(=O)C2C(=O)N(C(N)=O)c3cc(F)cnc32)c1 (stereo not given) | > 250 °C
COc1cc(N[C@H]2CC[C@H](NC3CCCC3)CC2)c(Cl)cc1C(N)=O | 169 to 171 °C
CC(=O)Nc1cc2cc([N+](=O)[O-])ccc2oc1=O | 277 to 279 °C
CCOC(=O)CNc1ccc(Cl)c(Cl)c1 | 103 to 104 °C
O=C(NC1CCCC1)c1ccc(-c2ccc3nnn(Cc4ccc5ncccc5c4)c3n2)cc1F | 166 to 168 °C
COc1ccc(-c2nc(C(=O)N3CCN(C(=O)NC(C)C)CC3)sc2-c2ccc(OC)cc2)cc1 | 157 to 159 °C
COC(=O)c1ccc(C#CC(C)(O)c2ccc3c(c2)C(C)(C)CCC3(C)C)cc1O (stereo not given) | 110 to 115 °C
O=C(O)CCCCCCCCCCc1ccc(Br)cc1 | 91 °C

SMILES | melting point
Cn1c(=O)c2c(nc3n2CC(O)CN3)n(C)c1=O (stereo not given) | 360 °C
CC(C)Oc1ccc2ncn(/C=C/C(=O)O)c(=O)c2c1 | 232 to 234 °C
COc1ccc(CCN2CCC(NC(=O)c3ccccc3)CC2)cc1OC | 194 to 195 °C
Cc1[nH]c(=O)c2ccccc2c1CC(=O)O | 280 to 295 °C
COc1ccc(N2CCN(c3ccc(OC)nc3-c3ccc(N(C)C)cc3)CC2)cc1 | 163 to 165 °C
Cn1ccc2cc(Nc3ccncc3)ccc21 | 202 to 203 °C
CCCCCCCCCCCCCCCCSCC(CN)n1nnc(C)n1 (stereo not given) | 82 to 83 °C
CCC[C@H](NC(=O)CNC)C(=O)N[C@@H](CCCNC(=N)N)C(=O)N[C@@H](C)P(=O)(O)O | 200 °C
O[C@H]1c2ccccc2C=C[C@@H]1OC(C(F)(F)F)C(F)(F)F | 88.5 to 90 °C
c1ccc(OCCSCc2nnc(-c3ccc(OCCCCN4CCCCCC4)cc3)o2)cc1 | 35 to 38 °C
COc1cc(C(=O)O)cc2ccc(-c3ccc4c(c3)C(C)(C)CCC4(C)C)cc12 | 242 °C
COC(=O)c1cc(O)cc(O[C@@H](C)CO)c1 | 133 °C
COc1cc(C=CC(=O)OC2C=C(C)C(=O)CC(C)(C)C2O)ccc1O (stereo not given) | 142 °C
CC(=O)NCc1ccc(C(C)O)cc1 (stereo not given) | 61 to 62 °C
COc1nc(C)nc(NC(=O)NS(=O)(=O)c2cccc3c2nnn3C)n1 | 134 to 136 °C
Cc1noc(C)c1COc1cc(-n2c(=O)cc(C(F)(F)F)n(C)c2=O)c(F)cc1Cl | 120 to 123 °C
NC(=NO)c1nn(-c2c(Cl)cc(C(F)(F)F)cc2Cl)c(N)c1S(=O)C(F)(F)F (stereo not given) | 203 to 205 °C
CC(=O)Nc1cccc(NC(=O)C=C(C)C)c1 | 144 to 148 °C
CC(C)C1(c2ccccc2OCCCCBr)C(=O)N(C)c2ccccc21 (stereo not given) | 98 to 100 °C
CCOC(=O)NC(=S)Nc1ccc(C(=O)OC(C)(C)C)cc1 | 119 to 120 °C
CCOC(=O)Cn1c(=O)oc2c(O)cccc21 | 150 to 152 °C
CSc1nccc(CC(=O)c2cccc(Br)c2)n1 | 98 to 101 °C
Cc1noc(-c2c(C)nc(Br)n2C)n1 | 89 °C
O=C(Cc1c[nH]cn1)NC(P(=O)(O)O)P(=O)(O)O | 247 to 250 °C
COc1ccc(Br)c(OC)c1C#N | 113 to 115 °C
